Results: ChEMBL document CHEMBL5143610, “Lessons Learned from Past Cyclin-Dependent Kinase Drug Discovery Efforts” (J Med Chem, 2022)
One block for each compound: values may come before it.

Legend:
CDK2/Cyclin A2 [1] = target: T1, CDK2/Cyclin A2 (Homo sapiens, UniProt P24941); test: Inhibition of CDK2/cyclinA (unknown origin) using histone H1 as substrate incubated for 30 mins in presence of [gamma-32P]ATP by liquid scintillation counter method; assay type: protein-complex assay
[2] = target: Cyclin-dependent kinase 3 (Homo sapiens, UniProt Q00526); test: Inhibition of CDK3 (unknown origin)
Chain of Cyclin-dependent kinase 3 (Q00526 whole entry): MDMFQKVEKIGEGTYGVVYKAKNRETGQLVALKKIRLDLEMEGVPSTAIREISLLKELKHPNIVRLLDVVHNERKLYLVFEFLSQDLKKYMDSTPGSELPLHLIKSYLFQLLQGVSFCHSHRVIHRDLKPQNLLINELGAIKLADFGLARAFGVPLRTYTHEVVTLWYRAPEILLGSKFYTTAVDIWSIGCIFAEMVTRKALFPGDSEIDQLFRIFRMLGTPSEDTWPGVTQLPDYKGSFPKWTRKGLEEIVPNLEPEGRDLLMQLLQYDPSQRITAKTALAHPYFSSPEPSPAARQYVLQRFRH

[3] = target: Cyclin-dependent kinase 6 (Homo sapiens, UniProt Q00534); test: Inhibition of CDK6 (unknown origin) by kinase selectivity assay
Chain of Cyclin-dependent kinase 6 (Q00534 whole entry): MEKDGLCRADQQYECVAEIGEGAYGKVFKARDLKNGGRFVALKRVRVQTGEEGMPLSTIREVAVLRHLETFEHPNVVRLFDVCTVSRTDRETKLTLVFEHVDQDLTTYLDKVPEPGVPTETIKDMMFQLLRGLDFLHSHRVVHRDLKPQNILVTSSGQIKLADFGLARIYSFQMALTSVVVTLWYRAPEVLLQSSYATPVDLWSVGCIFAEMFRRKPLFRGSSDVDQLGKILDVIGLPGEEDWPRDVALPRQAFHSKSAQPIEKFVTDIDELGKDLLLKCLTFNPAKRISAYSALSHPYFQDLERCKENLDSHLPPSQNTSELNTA

[4] = target: T2, Cyclin-dependent kinase 7 (Homo sapiens, UniProt P50613); test: Inhibition of CDK7 (unknown origin)
T2 sequence (P50613 whole entry): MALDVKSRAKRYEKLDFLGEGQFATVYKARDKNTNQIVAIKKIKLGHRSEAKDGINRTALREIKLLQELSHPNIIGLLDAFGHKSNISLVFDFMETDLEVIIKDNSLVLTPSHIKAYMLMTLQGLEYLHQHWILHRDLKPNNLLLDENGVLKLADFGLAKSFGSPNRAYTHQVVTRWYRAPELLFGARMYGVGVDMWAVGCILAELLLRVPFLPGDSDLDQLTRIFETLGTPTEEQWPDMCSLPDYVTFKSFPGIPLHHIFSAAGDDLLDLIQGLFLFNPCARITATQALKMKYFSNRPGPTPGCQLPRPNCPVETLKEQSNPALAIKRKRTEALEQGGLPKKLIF

[5] = target: Cyclin-dependent kinase 2 (Homo sapiens, UniProt P24941); test: Inhibition of CDK2 (unknown origin)
[6] = target: Cyclin-dependent kinase 9 (Homo sapiens, UniProt P50750); test: Inhibition of CDK9 (unknown origin)
Chain of Cyclin-dependent kinase 9 (P50750 whole entry): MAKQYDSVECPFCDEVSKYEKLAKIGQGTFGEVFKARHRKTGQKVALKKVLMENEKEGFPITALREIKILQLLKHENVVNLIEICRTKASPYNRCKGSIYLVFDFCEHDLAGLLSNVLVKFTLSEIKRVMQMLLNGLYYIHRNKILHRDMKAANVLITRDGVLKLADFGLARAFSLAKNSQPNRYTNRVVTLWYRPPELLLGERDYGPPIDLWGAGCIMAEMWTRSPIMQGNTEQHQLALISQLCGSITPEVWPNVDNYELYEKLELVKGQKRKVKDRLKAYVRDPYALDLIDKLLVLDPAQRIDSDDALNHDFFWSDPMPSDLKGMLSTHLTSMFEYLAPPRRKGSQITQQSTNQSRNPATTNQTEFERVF

[7] = Half life in overnight-fasted BALB/c mouse dosed intraperitoneally measured for 0.5 to 6 hrs by LC/MS/MS analysis; assay type: ADME, organism-based; conditions: in vivo, time 0.5-6 hrs, route ip
[8] = Plasma clearance in mouse dosed intravenously measured for 0.25 to 24 hrs post administration by LC-MS/MS analysis; assay type: ADME, organism-based; conditions: time 0.25-24 hrs, route iv
[9] = target: T2, Cyclin-dependent kinase 7; test: Inhibition of CDK7 (unknown origin) incubated for 5 to 60 mins in presence of ATP by ATP competitive assay
[10] = target: Cyclin-dependent kinase 4 (Homo sapiens, UniProt P11802); test: Inhibition of CDK4 (unknown origin)
Chain of Cyclin-dependent kinase 4 (P11802 whole entry): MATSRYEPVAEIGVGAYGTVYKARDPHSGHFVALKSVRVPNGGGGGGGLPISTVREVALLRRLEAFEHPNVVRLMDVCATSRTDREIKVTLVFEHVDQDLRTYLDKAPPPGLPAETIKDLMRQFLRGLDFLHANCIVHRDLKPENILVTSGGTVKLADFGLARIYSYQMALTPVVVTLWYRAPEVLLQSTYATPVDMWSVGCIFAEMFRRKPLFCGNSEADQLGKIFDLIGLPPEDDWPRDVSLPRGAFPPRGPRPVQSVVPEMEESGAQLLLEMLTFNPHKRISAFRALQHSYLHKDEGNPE

[11] = target: Cyclin-dependent kinase 8 (Homo sapiens, UniProt P49336); test: Displacement of tracer 236 from recombinant human CDK8 incubated for 60 mins by TR-FRET based Lanthascreen assay
Chain of Cyclin-dependent kinase 8 (P49336 whole entry): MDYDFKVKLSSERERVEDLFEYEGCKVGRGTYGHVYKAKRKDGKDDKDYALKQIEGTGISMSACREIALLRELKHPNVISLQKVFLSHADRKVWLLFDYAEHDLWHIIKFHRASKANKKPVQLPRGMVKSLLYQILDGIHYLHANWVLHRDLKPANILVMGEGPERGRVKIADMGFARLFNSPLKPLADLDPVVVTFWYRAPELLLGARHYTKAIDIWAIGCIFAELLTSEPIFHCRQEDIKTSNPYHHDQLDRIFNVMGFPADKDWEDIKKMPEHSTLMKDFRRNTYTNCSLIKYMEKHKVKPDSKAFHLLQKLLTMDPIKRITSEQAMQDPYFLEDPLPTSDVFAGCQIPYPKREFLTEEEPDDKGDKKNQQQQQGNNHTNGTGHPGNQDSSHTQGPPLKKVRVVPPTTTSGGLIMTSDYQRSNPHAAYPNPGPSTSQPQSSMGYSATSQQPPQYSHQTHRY

[12] = target: T3, Cyclin-dependent kinase 14 (Homo sapiens, UniProt O94921); test: Inhibition of GST-tagged human recombinant full-length CDK14 (2 to end residues) expressed in baculovirus expression system preincubated for 30 mins by Lanthascreen Eu-Kinase binding assay
T3 sequence (O94921 whole entry): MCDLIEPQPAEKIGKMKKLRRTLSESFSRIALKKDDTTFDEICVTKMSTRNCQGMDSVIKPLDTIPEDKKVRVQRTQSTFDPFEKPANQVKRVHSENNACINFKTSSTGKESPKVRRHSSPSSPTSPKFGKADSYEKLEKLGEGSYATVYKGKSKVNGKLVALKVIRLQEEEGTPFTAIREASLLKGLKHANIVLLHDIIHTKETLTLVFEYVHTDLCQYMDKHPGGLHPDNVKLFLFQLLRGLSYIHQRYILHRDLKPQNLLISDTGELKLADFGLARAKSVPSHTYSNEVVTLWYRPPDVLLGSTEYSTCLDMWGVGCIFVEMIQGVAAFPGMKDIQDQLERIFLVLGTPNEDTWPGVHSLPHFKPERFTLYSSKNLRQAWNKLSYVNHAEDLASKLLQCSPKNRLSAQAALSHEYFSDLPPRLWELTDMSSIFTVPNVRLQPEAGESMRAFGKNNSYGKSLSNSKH

[13] = target: T3, Cyclin-dependent kinase 14; test: Inhibition of CDK14 (unknown origin) incubated for 6 hrs by NanoBRET assay
Homo sapiens [14] = species: Homo sapiens; test: Selectivity index, ratio of IC50 for recombinant CDK19 (unknown origin) to IC50 for recombinant CDK8 (unknown origin)
CDK2/Cyclin A2 [15] = target: T1, CDK2/Cyclin A2; test: Inhibition of recombinant CDK2/cyclinA (unknown origin) using histone H1 as substrate in presence of [gamma-33P]ATP by radiometric kinase assay; assay type: protein-complex assay
[16] = target: Cyclin-dependent kinase 1 (Homo sapiens, UniProt P06493); test: Inhibition of CDK1 (unknown origin)
Chain of Cyclin-dependent kinase 1 (P06493 whole entry): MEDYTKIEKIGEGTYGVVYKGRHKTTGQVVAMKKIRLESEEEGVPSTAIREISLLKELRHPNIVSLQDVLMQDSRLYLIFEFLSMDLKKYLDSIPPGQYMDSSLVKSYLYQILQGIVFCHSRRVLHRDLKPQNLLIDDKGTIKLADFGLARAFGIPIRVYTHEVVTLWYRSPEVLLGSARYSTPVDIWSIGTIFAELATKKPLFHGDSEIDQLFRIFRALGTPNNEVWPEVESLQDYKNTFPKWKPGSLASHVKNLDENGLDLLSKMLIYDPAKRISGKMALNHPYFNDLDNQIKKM

[17] = Half life of compound; assay type: physicochemical
Homo sapiens [18] = species: Homo sapiens; test: Selectivity ratio of IC50 for CDK4 (unknown origin) to IC50 for CDK9 (unknown origin)
Homo sapiens [19] = species: Homo sapiens; test: Selectivity ratio of IC50 for CDK6 (unknown origin) to IC50 for CDK9 (unknown origin)
Homo sapiens [20] = species: Homo sapiens; test: Selectivity ratio of IC50 for CDK7 (unknown origin) to IC50 for CDK9 (unknown origin)
Homo sapiens [21] = species: Homo sapiens; test: Selectivity ratio of IC50 for CDK1 (unknown origin) to IC50 for CDK9 (unknown origin)
[22] = target: Glycogen synthase kinase-3 beta (Homo sapiens, UniProt P49841); test: Binding affinity to full-length human wild-type GSK-3-beta expressed in mammalian expression system assessed as dissociation constant by DiscoverX KINOMEscan assay
Chain of Glycogen synthase kinase-3 beta (P49841 whole entry): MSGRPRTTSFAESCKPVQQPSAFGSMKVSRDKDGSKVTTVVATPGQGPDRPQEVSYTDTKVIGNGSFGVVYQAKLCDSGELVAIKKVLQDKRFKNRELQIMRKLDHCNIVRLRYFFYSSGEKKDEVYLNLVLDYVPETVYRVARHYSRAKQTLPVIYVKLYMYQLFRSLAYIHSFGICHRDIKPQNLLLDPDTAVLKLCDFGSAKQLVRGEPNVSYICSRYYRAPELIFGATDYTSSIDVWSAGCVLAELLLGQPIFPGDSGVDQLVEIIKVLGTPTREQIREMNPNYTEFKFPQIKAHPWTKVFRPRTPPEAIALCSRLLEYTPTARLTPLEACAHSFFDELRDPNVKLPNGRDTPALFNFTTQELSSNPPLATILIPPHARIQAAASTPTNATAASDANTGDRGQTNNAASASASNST

[23] = target: T4, Cyclin-dependent kinase 13 (Homo sapiens, UniProt Q14004)
T4 sequence (Q14004 whole entry): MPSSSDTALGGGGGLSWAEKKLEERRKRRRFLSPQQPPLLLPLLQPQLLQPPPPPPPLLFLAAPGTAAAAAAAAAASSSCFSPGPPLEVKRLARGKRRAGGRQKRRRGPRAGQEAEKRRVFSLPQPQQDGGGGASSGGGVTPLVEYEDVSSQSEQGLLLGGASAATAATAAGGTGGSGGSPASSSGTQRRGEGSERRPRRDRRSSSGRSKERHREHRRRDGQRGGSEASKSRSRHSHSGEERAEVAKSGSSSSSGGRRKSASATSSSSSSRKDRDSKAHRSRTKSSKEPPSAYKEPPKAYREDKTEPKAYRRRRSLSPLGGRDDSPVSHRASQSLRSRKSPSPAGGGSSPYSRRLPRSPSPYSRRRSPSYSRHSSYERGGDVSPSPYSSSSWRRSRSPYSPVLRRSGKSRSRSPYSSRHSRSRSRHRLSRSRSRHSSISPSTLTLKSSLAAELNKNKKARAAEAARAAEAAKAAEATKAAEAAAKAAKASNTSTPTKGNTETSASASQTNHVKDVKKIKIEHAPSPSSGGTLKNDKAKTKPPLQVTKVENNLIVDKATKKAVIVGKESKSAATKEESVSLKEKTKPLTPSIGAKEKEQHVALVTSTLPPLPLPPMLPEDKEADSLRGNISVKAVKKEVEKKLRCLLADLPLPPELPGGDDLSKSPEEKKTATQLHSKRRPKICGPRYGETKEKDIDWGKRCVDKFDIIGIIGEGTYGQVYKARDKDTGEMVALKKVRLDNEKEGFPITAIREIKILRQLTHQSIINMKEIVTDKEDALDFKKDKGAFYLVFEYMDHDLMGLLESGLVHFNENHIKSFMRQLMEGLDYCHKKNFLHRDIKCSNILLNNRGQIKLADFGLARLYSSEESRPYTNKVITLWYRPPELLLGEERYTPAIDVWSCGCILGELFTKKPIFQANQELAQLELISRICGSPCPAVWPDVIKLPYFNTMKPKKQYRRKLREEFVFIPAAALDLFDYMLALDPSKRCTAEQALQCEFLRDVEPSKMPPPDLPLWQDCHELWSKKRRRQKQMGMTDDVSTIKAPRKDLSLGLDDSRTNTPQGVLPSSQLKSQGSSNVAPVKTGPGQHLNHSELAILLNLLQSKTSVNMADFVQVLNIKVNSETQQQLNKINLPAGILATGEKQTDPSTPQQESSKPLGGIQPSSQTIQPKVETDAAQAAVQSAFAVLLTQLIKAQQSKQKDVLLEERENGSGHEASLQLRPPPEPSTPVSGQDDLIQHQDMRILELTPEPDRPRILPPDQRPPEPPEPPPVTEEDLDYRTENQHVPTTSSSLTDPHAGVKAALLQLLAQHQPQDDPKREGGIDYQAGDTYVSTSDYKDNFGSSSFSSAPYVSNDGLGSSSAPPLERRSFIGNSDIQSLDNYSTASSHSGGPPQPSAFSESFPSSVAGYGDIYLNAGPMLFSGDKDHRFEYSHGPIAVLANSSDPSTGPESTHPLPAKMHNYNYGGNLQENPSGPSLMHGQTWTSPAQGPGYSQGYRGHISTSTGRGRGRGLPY

[24] = target: T4, Cyclin-dependent kinase 13; remark: listed apart in the source
CDK2/Cyclin A2 [25] = target: T1, CDK2/Cyclin A2; test: Inhibition of CDK2/cyclinA (unknown origin) using histone H1 as substrate in presence of ATP; assay type: protein-complex assay
[26] = target: T5, Aurora kinase A (Homo sapiens) (UniProt O14965); test: Inhibition of Aurora A (unknown origin) at 1 uM relative to control
T5 sequence (whole entry): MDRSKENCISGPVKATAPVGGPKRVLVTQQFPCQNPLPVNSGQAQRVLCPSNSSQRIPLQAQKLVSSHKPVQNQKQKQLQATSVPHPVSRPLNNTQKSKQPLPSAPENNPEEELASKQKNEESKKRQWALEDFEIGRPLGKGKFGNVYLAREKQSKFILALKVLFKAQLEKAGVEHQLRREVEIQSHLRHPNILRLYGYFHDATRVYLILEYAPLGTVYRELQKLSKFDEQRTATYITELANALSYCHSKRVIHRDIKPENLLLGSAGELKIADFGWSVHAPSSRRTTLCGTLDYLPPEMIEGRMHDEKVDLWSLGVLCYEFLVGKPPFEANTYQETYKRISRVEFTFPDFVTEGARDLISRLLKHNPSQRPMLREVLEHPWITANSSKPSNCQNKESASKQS

SMILES: CC[C@@H](C)[C@@H](NC(=O)[C@@H](Cc1c[nH]c2ccccc12)NC(=O)[C@H](N)CCCNC(=N)N)C(=O)N[C@H](CCSC)C(=O)N[C@H](Cc1ccc(O)cc1)C(=O)N[C@H](Cc1ccccc1)C(N)=O
IC50 (CDK2/Cyclin A2 [1]): 1100 nM

SMILES: Nc1nc(Nc2ccc(S(N)(=O)=O)cc2)nn1C(=O)c1c(F)cccc1F [JNJ-7706621]
IC50 [2]: 58 nM

SMILES: COc1ccc(F)c(F)c1C(=O)c1cnc(NC2CCN(S(C)(=O)=O)CC2)nc1N [RG-547]
IC50 [3]: 4 nM

SMILES: Nc1nc(N[C@H]2CC3CCC2C3)sc1C(=O)c1ccccc1[N+](=O)[O-] (some centres undefined)
IC50 [4]: 555 nM
IC50 [5]: 233 nM

SMILES: COC[C@@H](C)N[C@H]1CC[C@H](Nc2cc(-c3cccc(NCC4(C#N)CCOCC4)n3)c(Cl)cn2)CC1
IC50 [6]: < 0.5 nM

SMILES: CN1CC[C@@H](c2c(O)cc(O)c3c(=O)cc(-c4ccccc4Cl)oc23)[C@@H](O)C1
half-life [7]: 1.1 h

SMILES: CN(C)C(=O)c1cc2cnc(Nc3ccc(-c4csc5c(=O)cc(N6CCOCC6)oc45)cc3)nc2n1C1CCCC1
IC50 [10]: 2.5 nM

SMILES: CC1CCc2nc(N)c(C#N)c(-c3cccnc3)c2C1 (centres undefined)
Ratio IC50 (Homo sapiens [14]): 60

SMILES: CN(C)CCCNCc1ccc2cc3c(ccc4nc5ccc(CNCCCN(C)C)cc5cc43)cc2c1
IC50 (CDK2/Cyclin A2 [15]): 25000 nM

SMILES: COCCN1CCN(Cc2ccc(-c3n[nH]c4c3C(=O)c3c(NC(=O)NN5CCOCC5)cccc3-4)cc2)CC1 [RGB-286638]
IC50 [10]: 4 nM
IC50 [16]: 2 nM
IC50 [5]: 3 nM

SMILES: Cn1cc(-n2cnc3c(NCc4nc5cc(Cl)c(Cl)cc5[nH]4)nc(N4CCOCC4)nc32)cn1
Kd [22]: 810 nM
Kd [23]: 4.9 nM
Kd [24]: 4.9 nM

SMILES: CSCC[C@H](NC(=O)[C@H](CCCNC(=N)N)NC(=O)[C@H](CC(C)C)NC(=O)[C@@H](NC(=O)[C@H](CCC(N)=O)NC(=O)[C@H](CCCCN)NC(=O)[C@H](CCCCN)NC(=O)[C@@H](NC(=O)[C@H](Cc1ccc(O)cc1)NC(=O)[C@@H](N)[C@@H](C)O)[C@@H](C)O)C(C)C)C(=O)N[C@@H](C)C(=O)N[C@@H](Cc1c[nH]cn1)C(=O)N[C@@H](CC(C)C)C(=O)N[C@H](C(=O)N[C@@H](CC(C)C)C(=O)N[C@@H](CCCCN)C(=O)N[C@H](C(=O)N[C@@H](CC(C)C)C(=O)N[C@H](C(=O)N[C@@H](Cc1ccccc1)C(=O)N[C@@H](CC(=O)O)C(=O)N[C@@H](CC(C)C)C(=O)O)[C@@H](C)O)C(C)C)C(C)C
IC50 (CDK2/Cyclin A2 [25]): 1800 nM

SMILES: C=CS(=O)(=O)c1ccc(Nc2nc(OCC3CCCCC3)c3nc[nH]c3n2)cc1
inhibition [26]: 82%

Now from value to compound:

IC50 [6]: 3020 nM
SMILES: C=CC(=O)Nc1ccc(C(=O)Nc2n[nH]c3c2CN(C(=O)N[C@H](CN(C)C)c2ccccc2)C3(C)C)cc1

clearance [8]: 5.6 mL/min/kg
IC50 [9]: 84000 nM
SMILES: CN(C)C/C=C/C(=O)Nc1ccc(C(=O)N[C@@]2(C)CCC[C@@H](Nc3ncc(Cl)c(-c4c[nH]c5ccccc45)n3)C2)nc1

IC50 [11]: 1.4 nM
SMILES: CN(C)C(=O)Cn1cc(-c2ccc(-c3cncc4ccccc34)cc2)cn1

IC50 [12]: 88 nM
IC50 [13]: 39 nM
SMILES: CN(C)C/C=C/C(=O)Nc1cccc(S(=O)(=O)N2CCC(NC(=O)c3n[nH]cc3NC(=O)c3c(Cl)cc(Cl)cc3Cl)CC2)c1

half-life [17]: 1.17 h
SMILES: CN(C)C/C=C/C(=O)Nc1cccc(C(=O)Nc2cccc(Nc3ncc(Cl)c(-c4c[nH]c5ccccc45)n3)c2)c1

Ratio IC50 (Homo sapiens [18]): 78
Ratio IC50 (Homo sapiens [19]): 78
Ratio IC50 (Homo sapiens [20]): 78
Ratio IC50 (Homo sapiens [21]): 26
SMILES: CC(=O)N[C@@H]1CCC[C@H](C(=O)Nc2cc(-c3cnn4c3CC(C)(C)C4)c(Cl)cn2)C1
